Assay results: patent publication US10058495B2, “Method of making a skin care product” (The Procter & Gamble Company, priority 2014, dated 2018)
Residues, ends and D or L forms follow the SMILES beside them. *: point of attachment. Palmitoyl = CCCCCCCCCCCCCCCC(=O)*

Experiment: In vivo skin penetration study #1 (Tape Stripping method), magnetic array vs finger
Design: species or system human
Conditions: for combined amount of Pal-KTTKS on tape strips, Mean: mean of the three strip groups; for combined amount of Pal-KTTKS on tape strips, Mean / combined amount of Pal-KTTKS on tape strips: in ng; for delivery of Pal-KTTKS, active compared to passive application: three test subjects
Description: An in vivo skin penetration study was conducted to establish the effect of using a skin care product of the present invention by applying a skin care composition comprising Pal-KTTKS (SEQ ID NO: 1) with an applicator comprising a magnetic array. The study compared the penetration of the Pal-KTTKS (SEQ ID NO: 1) in combination with a variety of magnetic arrays (active application) to the penetration of Pal-KTTKS (SEQ ID NO: 1) applied with a finger (passive application). Penetration of Pal-KTTKS (SEQ ID NO: 1) in this example is determined according to the Tape Stripping method. In this example, the level of Pal-KTTKS (SEQ ID NO: 1) present in the extract from each tape strip was measured using HPLC and the results normalized to the protein level measured on the tape strip.
This method provides a suitable means of measuring the amount of skin care active present in skin, and comparing active versus passive application of the skin care active. Two identical rectangular areas of 15 cm^2 are marked on the volar forearms of volunteers. A measured dose (approximately 30 mg) of the Pal-KTTKS (SEQ ID NO: 1) formulation is applied to the delineated areas using a screw actuated syringe. Active application is carried out on one of the delineated areas using the three-quarter profile of a purpose made applicator (e.g., an applicator presenting one of the magnetic arrays set forth in Table 2). Passive application is accomplished on the other delineated area using the tip of a finger in a sweeping motion identical to that of the active application. The formulation is spread evenly across the entire delineated region using a sweeping motion with a fixed speed of approximately 23 cm/s to […]. The application period is 30 seconds during which time visual inspection is used to ensure even distribution and absorption of the formulation by skin. The application area is then left uncovered for a further 30 minutes to ensure complete absorption. Tape strip samples may be collected and/or analyzed immediately after the complete absorption is ensured or after a waiting period (e.g., after multiple applications of the formulation over multiple hours or days).
The tape stripping procedure is carried out using 10 commercial pre-cut 22.1 mm tape stripping adhesive discs (e.g., D-SQUAME, available from Cuderm Corporation or equivalent) with an adhesive area of 3.8 cm^2. The 10 tape strips are applied sequentially to the same sampling site, which ideally enables each tape strip to obtain a sample from deeper within the stratum corneum than the tape strip that preceded it. A 22.1 mm diameter circular region is marked at the center of the application area. A tape stripping adhesive disc is placed over the marked area and even pressure applied using, for example, a neoprene roller, rolled ten times over the adhesive disc. The adhesive disc is removed from the skin surface in a single pulling motion using manual tweezers. To ensure even removal of the skin sample, subsequent discs are removed in a “north, south, east and west” orientation, which is within the skill of the ordinary artisan. Each adhesive disc is non-destructively analysed for protein content using a suitable instrument (e.g., SquameScan™ 850 instrument commercially available from Heiland Electronics Wetzlar, Germany, or equivalent). The adhesive disc is then immediately placed into a glass vial containing extraction solvent in preparation for subsequent analysis. Solvent extractions are conducted on each tape strip using conventional extraction methods, which are well known to those of ordinary skill in the art, and measuring the amount of Pal-KTTKS (SEQ ID NO: 1) present in the extract, for example, by high performance liquid chromatography (“HPLC”) and/or mass spectrometry.
The procedure is repeated for the remaining nine strips. An additional strip is obtained from outside the area of application of the skin care formulation to serve as a blank sample. […]

**Q.** What does the source list for CCCCCCCCCCCCCCCC(=O)N[C@@H](CCCCN)C(=O)N[C@H](C(=O)N[C@H](C(=O)N[C@@H](CCCCN)C(=O)N[C@@H](CO)C(=O)O)[C@@H](C)O)[C@@H](C)O [Pal-KTTKS, palmitoyl-lysine-threonine-threonine-lysine-serine] (Palmitoyl-KTTKS-OH; C-terminus assumed)?
**A.** combined amount of Pal-KTTKS on tape strips, Mean (array 4, active, Average): 102.11; combined amount of Pal-KTTKS on tape strips, Mean (array 4, active, subject 1, 1st test): 144.79; combined amount of Pal-KTTKS on tape strips, Mean (array 4, active, subject 1, 2nd test): 96.97; combined amount of Pal-KTTKS on tape strips, Mean (array 4, active, subject 2, 1st test): 122.02; combined amount of Pal-KTTKS on tape strips, Mean (array 4, active, subject 2, 2nd test): 78.21; combined amount of Pal-KTTKS on tape strips, Mean (array 4, active, subject 3 (2nd test of Table 7)): 68.57; combined amount of Pal-KTTKS on tape strips (array 4, active, strips 2-4, Average): 108.81; combined amount of Pal-KTTKS on tape strips (array 4, active, strips 2-4, subject 1, 1st test): 158.48; combined amount of Pal-KTTKS on tape strips (array 4, active, strips 2-4, subject 1, 2nd test): 82.45; combined amount of Pal-KTTKS on tape strips (array 4, active, strips 2-4, subject 2, 1st test): 129.33; combined amount of Pal-KTTKS on tape strips (array 4, active, strips 2-4, subject 2, 2nd test): 94.10; combined amount of Pal-KTTKS on tape strips (array 4, active, strips 2-4, subject 3 (2nd test of Table 7)): 79.66; combined amount of Pal-KTTKS on tape strips (array 4, active, strips 5-7, Average): 107.95; combined amount of Pal-KTTKS on tape strips (array 4, active, strips 5-7, subject 1, 1st test): 154.85; combined amount of Pal-KTTKS on tape strips (array 4, active, strips 5-7, subject 1, 2nd test): 117.42; combined amount of Pal-KTTKS on tape strips (array 4, active, strips 5-7, subject 2, 1st test): 121.51; combined amount of Pal-KTTKS on tape strips (array 4, active, strips 5-7, subject 2, 2nd test): 73.41; combined amount of Pal-KTTKS on tape strips (array 4, active, strips 5-7, subject 3 (2nd test of Table 7)): 72.59; combined amount of Pal-KTTKS on tape strips (array 4, active, strips 8-10, Average): 89.57; combined amount of Pal-KTTKS on tape strips (array 4, active, strips 8-10, subject 1, 1st test): 121.04; combined amount of Pal-KTTKS on tape strips (array 4, active, strips 8-10, subject 1, 2nd test): 91.03; combined amount of Pal-KTTKS on tape strips (array 4, active, strips 8-10, subject 2, 1st test): 115.22; combined amount of Pal-KTTKS on tape strips (array 4, active, strips 8-10, subject 2, 2nd test): 67.12; combined amount of Pal-KTTKS on tape strips (array 4, active, strips 8-10, subject 3 (2nd test of Table 7)): 53.45; combined amount of Pal-KTTKS on tape strips, Mean (array 9, active, average of subjects): 165.57; combined amount of Pal-KTTKS on tape strips, Mean (array 9, active, subject 1): 154.29; combined amount of Pal-KTTKS on tape strips, Mean (array 9, active, subject 2): 201.48; combined amount of Pal-KTTKS on tape strips, Mean (array 9, active, subject 3): 140.93; combined amount of Pal-KTTKS on tape strips (array 9, active, strips 2-4, average of subjects): 263.02; combined amount of Pal-KTTKS on tape strips (array 9, active, strips 2-4, subject 1): 177.13; combined amount of Pal-KTTKS on tape strips (array 9, active, strips 2-4, subject 2): 440.14; combined amount of Pal-KTTKS on tape strips (array 9, active, strips 2-4, subject 3): 171.79; combined amount of Pal-KTTKS on tape strips (array 9, active, strips 5-7, average of subjects): 120.01; combined amount of Pal-KTTKS on tape strips (array 9, active, strips 5-7, subject 1): 131.72; combined amount of Pal-KTTKS on tape strips (array 9, active, strips 5-7, subject 2): 100.02; combined amount of Pal-KTTKS on tape strips (array 9, active, strips 5-7, subject 3): 128.29; combined amount of Pal-KTTKS on tape strips (array 9, active, strips 8-10, average of subjects): 113.67; combined amount of Pal-KTTKS on tape strips (array 9, active, strips 8-10, subject 1): 154.03; combined amount of Pal-KTTKS on tape strips (array 9, active, strips 8-10, subject 2): 64.27; combined amount of Pal-KTTKS on tape strips (array 9, active, strips 8-10, subject 3): 122.70; delivery of Pal-KTTKS, active compared to passive application (bi-directional magnetic array #9): significant enhanced delivery; combined amount of Pal-KTTKS on tape strips, Mean (passive, comparator of array 4, Average): 50.00; combined amount of Pal-KTTKS on tape strips, Mean (passive, comparator of array 4, subject 1, 1st test): 59.18; combined amount of Pal-KTTKS on tape strips, Mean (passive, comparator of array 4, subject 1, 2nd test): 42.29; combined amount of Pal-KTTKS on tape strips, Mean (passive, comparator of array 4, subject 2, 1st test): 52.85; combined amount of Pal-KTTKS on tape strips, Mean (passive, comparator of array 4, subject 2, 2nd test): 23.30; combined amount of Pal-KTTKS on tape strips, Mean (passive, comparator of array 4, subject 3 (2nd test of Table 8)): 72.39; combined amount of Pal-KTTKS on tape strips (passive, comparator of array 4, strips 2-4, Average): 70.42; combined amount of Pal-KTTKS on tape strips (passive, comparator of array 4, strips 2-4, subject 1, 1st test): 79.94; combined amount of Pal-KTTKS on tape strips (passive, comparator of array 4, strips 2-4, subject 1, 2nd test): 69.89; combined amount of Pal-KTTKS on tape strips (passive, comparator of array 4, strips 2-4, subject 2, 1st test): 86.09; combined amount of Pal-KTTKS on tape strips (passive, comparator of array 4, strips 2-4, subject 2, 2nd test): 28.02; combined amount of Pal-KTTKS on tape strips (passive, comparator of array 4, strips 2-4, subject 3 (2nd test of Table 8)): 88.18; combined amount of Pal-KTTKS on tape strips (passive, comparator of array 4, strips 5-7, Average): 49.50; combined amount of Pal-KTTKS on tape strips (passive, comparator of array 4, strips 5-7, subject 1, 1st test): 65.58; combined amount of Pal-KTTKS on tape strips (passive, comparator of array 4, strips 5-7, subject 1, 2nd test): 35.35; combined amount of Pal-KTTKS on tape strips (passive, comparator of array 4, strips 5-7, subject 2, 1st test): 46.95; combined amount of Pal-KTTKS on tape strips (passive, comparator of array 4, strips 5-7, subject 2, 2nd test): 23.11; combined amount of Pal-KTTKS on tape strips (passive, comparator of array 4, strips 5-7, subject 3 (2nd test of Table 8)): 76.52; combined amount of Pal-KTTKS on tape strips (passive, comparator of array 4, strips 8-10, Average): 30.08; combined amount of Pal-KTTKS on tape strips (passive, comparator of array 4, strips 8-10, subject 1, 1st test): 32.01; combined amount of Pal-KTTKS on tape strips (passive, comparator of array 4, strips 8-10, subject 1, 2nd test): 21.64; combined amount of Pal-KTTKS on tape strips (passive, comparator of array 4, strips 8-10, subject 2, 1st test): 25.51; combined amount of Pal-KTTKS on tape strips (passive, comparator of array 4, strips 8-10, subject 2, 2nd test): 18.76; combined amount of Pal-KTTKS on tape strips (passive, comparator of array 4, strips 8-10, subject 3 (2nd test of Table 8)): 52.45; combined amount of Pal-KTTKS on tape strips, Mean (passive, comparator of array 9, average of subjects): 47.80; combined amount of Pal-KTTKS on tape strips, Mean (passive, comparator of array 9, subject 1): 42.29; combined amount of Pal-KTTKS on tape strips, Mean (passive, comparator of array 9, subject 2): 28.71; combined amount of Pal-KTTKS on tape strips, Mean (passive, comparator of array 9, subject 3): 72.39; combined amount of Pal-KTTKS on tape strips (passive, comparator of array 9, strips 2-4, average of subjects): 62.79; combined amount of Pal-KTTKS on tape strips (passive, comparator of array 9, strips 2-4, subject 1): 69.89; combined amount of Pal-KTTKS on tape strips (passive, comparator of array 9, strips 2-4, subject 2): 30.29; combined amount of Pal-KTTKS on tape strips (passive, comparator of array 9, strips 2-4, subject 3): 88.18; combined amount of Pal-KTTKS on tape strips (passive, comparator of array 9, strips 5-7, average of subjects): 50.50; combined amount of Pal-KTTKS on tape strips (passive, comparator of array 9, strips 5-7, subject 1): 35.35; combined amount of Pal-KTTKS on tape strips (passive, comparator of array 9, strips 5-7, subject 2): 39.62; combined amount of Pal-KTTKS on tape strips (passive, comparator of array 9, strips 5-7, subject 3): 76.52; combined amount of Pal-KTTKS on tape strips (passive, comparator of array 9, strips 8-10, average of subjects): 30.11; combined amount of Pal-KTTKS on tape strips (passive, comparator of array 9, strips 8-10, subject 1): 21.64; combined amount of Pal-KTTKS on tape strips (passive, comparator of array 9, strips 8-10, subject 2): 16.23; combined amount of Pal-KTTKS on tape strips (passive, comparator of array 9, strips 8-10, subject 3): 52.45; delivery of Pal-KTTKS, active compared to passive application (uni-directional magnetic array #4): significant enhanced delivery
